Assay results taken from patent US11738031B2, “Compositions and methods for preventing or treating muscle conditions” (The Board of Trustees of the Leland Stanford Junior …, priority 2017, dated 2023).

Experiments:
[1] = published, FDA approved dose range; cited from earlier work
[2] = tested on: endogenous MuSCs in tibialis anterior (TA) muscles; assay: BLI of endogenous MuSC expansion after intramuscular bupivacaine/dmPGE2 (Example 4); assay type: in vivo, mouse; conditions: 0.125%, 0.25% or 0.5% BPV in combination with 10 μg dmPGE2, two weeks after injection
Procedure: Double-transgenic Pax7^CreERT2;Rosa26-LSL-Luc mice were generated by crossing Pax7^CreERT2 mice and Rosa26-LSL-Luc mice obtained from Jackson Laboratory (Stock #005125). These genotypes were validated by appropriate PCR-based strategies. All mice from transgenic and wild-type strains were of young age (2-4 months). All experiments were conducted using age and gender-matched controls. As depicted in the experimental scheme shown in FIG. 23A, mice were treated with five consecutive daily intraperitoneal injections of tamoxifen to activate luciferase expression under the control of the Pax7 promoter. A week after the last tamoxifen injection, the tibialis anterior (TA) muscles were injected intramuscularly with 50 μL of a drug mixture containing 0.125%, 0.25%, or 0.5% bupivacaine (BPV) (Cayman Chemical Cat #16618) and 10 μg 16,16-dimethyl prostaglandin E2 (dmPGE2; Tocris, Catalog #4027) using a 30 gauge needle on a Hamilton syringe. The contralateral TA received 50 μL of a mixture containing 0.5% bupivacaine (BPV) and DMSO vehicle as baseline sham control. Bioluminescence was assayed at days 3, 7, 10 and 14 post-injury.
Bioluminescence imaging (BLI) was performed using a Xenogen-100 system, as previously described. Briefly, mice were anesthetized using isofluorane inhalation and administered 120 μL D-luciferin (0.1 mmol/kg, reconstituted in PBS; Caliper LifeSciences) by intraperitoneal injection. BLI was acquired with between 5-60 second exposure at F-stop=1.0 at 5 minutes after luciferin injection. Digital images were recorded and analyzed using Living Image software (Caliper LifeSciences). Images were analyzed with a consistent region-of-interest (ROI) placed over each hindlimb to calculate a bioluminescence signal. A bioluminescence signal was calculated in radiance (p s^−1 cm^−2 sr^−1) value of 10^4 to define a positive threshold signal over background. BLI imaging was performed bi-weekly for 2 weeks after coinjection of BPV with dmPGE2 or vehicle.
The data in FIGS. 23A-C and 24 are shown as the mean±s.e.m. with n=6 mice. […]

CCCCN1CCCCC1C(=O)Nc1c(C)cccc1C (centres unmarked) [bupivacaine]
NOAEL [1]: 0.5% | muscle regeneration (fold change in BLI) vs BPV dose [2]: dose-dependent increase in muscle regeneration
